Assay results: the kinase profiling compilation of Christmann-Franck et al. (2016)

Key:
Assay in all cases: radiometric filter-binding kinase assay, Kinase HotSpot
Conditions in all cases: compound 0.5 µM; ATP 10 µM
FLT3 (human) = FLT3 (human) (UniProt P36888)
NEK2 (human) = NEK2 (human) (UniProt P51955)
CLK1 (human) = CLK1 (human) (UniProt P49759)
DYRK3 (human) = DYRK3 (human) (UniProt O43781)
DYRK1B (human) = DYRK1B (human) (UniProt Q9Y463)
EPHB3 (human) = EPHB3 (human) (UniProt P54753)
RPS6KA4 KD2 (human) = RPS6KA4 KD2 (human) (UniProt O75676)
HCK (human) = HCK (human) (UniProt P08631)
GSG2 (human) = GSG2 (human) (UniProt Q8TF76)
TYRO3 (human) = TYRO3 (human) (UniProt Q06418)
ACVR1B (human) = ACVR1B (human) (UniProt P36896)
MAP2K2 (human) = MAP2K2 (human) (UniProt P36507)
CHEK2 (human) = CHEK2 (human) (UniProt O96017)
RPS6KA6 KD1 KD2 (human) = RPS6KA6 KD1 KD2 (human) (UniProt Q9UK32)
PLK3 (human) = PLK3 (human) (UniProt Q9H4B4)
CSNK1G2 (human) = CSNK1G2 (human) (UniProt P78368)
NEK6 (human) = NEK6 (human) (UniProt Q9HC98)
CDK6 CCND3 (human) = CDK6 CCND3 (human) (UniProt P30281+Q00534)
MAP3K14 (human) = MAP3K14 (human) (UniProt Q99558)
SRPK2 (human) = SRPK2 (human) (UniProt P78362)
RET (human) = RET (human) (UniProt P07949)
FRK (human) = FRK (human) (UniProt P42685)
CSNK1A1 (human) = CSNK1A1 (human) (UniProt P48729)
CDK5 CDK5R1 p35 (human) = CDK5 CDK5R1 p35 (human) (UniProt Q00535+Q15078)
FGFR1 (human) = FGFR1 (human) (UniProt P11362)
MAP2K1 (human) = MAP2K1 (human) (UniProt Q02750)
MERTK (human) = MERTK (human) (UniProt Q12866)
SRMS (human) = SRMS (human) (UniProt Q9H3Y6)
BRSK1 (human) = BRSK1 (human) (UniProt Q8TDC3)
CAMK2D (human) = CAMK2D (human) (UniProt Q13557)
TEC (human) = TEC (human) (UniProt P42680)
SRPK1 (human) = SRPK1 (human) (UniProt Q96SB4)
RAF1 (human) = RAF1 (human) (UniProt P04049)
DYRK2 (human) = DYRK2 (human) (UniProt Q92630)
RPS6KB1 (human) = RPS6KB1 (human) (UniProt P23443)
EPHA2 (human) = EPHA2 (human) (UniProt P29317)
BRSK2 (human) = BRSK2 (human) (UniProt Q8IWQ3)
DYRK1A (human) = DYRK1A (human) (UniProt Q13627)
CSF1R (human) = CSF1R (human) (UniProt P07333)
TGFBR2 (human) = TGFBR2 (human) (UniProt P37173)
PRKD2 (human) = PRKD2 (human) (UniProt Q9BZL6)
VRK1 (human) = VRK1 (human) (UniProt Q99986)

Sequence of RAF1 (human) (P04049 whole entry, looked up): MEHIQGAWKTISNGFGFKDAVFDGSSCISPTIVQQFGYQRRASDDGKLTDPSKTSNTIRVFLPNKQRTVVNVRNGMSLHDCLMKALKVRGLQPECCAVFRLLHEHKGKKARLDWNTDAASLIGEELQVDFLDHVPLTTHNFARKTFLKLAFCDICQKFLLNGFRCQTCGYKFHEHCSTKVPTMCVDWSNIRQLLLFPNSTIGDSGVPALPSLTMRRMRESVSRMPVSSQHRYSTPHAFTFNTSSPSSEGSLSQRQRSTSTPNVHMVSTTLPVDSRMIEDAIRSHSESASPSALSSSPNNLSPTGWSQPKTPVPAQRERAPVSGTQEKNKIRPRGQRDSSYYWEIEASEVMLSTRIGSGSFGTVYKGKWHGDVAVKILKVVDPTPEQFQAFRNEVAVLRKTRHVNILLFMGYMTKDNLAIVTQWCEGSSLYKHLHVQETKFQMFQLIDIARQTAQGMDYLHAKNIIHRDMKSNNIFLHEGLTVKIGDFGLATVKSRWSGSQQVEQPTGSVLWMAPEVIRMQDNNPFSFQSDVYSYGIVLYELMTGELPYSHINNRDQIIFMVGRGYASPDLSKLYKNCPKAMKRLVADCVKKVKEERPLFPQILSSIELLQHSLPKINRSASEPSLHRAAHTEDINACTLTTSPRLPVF
Sequence of CSF1R (human) (P07333 whole entry, looked up): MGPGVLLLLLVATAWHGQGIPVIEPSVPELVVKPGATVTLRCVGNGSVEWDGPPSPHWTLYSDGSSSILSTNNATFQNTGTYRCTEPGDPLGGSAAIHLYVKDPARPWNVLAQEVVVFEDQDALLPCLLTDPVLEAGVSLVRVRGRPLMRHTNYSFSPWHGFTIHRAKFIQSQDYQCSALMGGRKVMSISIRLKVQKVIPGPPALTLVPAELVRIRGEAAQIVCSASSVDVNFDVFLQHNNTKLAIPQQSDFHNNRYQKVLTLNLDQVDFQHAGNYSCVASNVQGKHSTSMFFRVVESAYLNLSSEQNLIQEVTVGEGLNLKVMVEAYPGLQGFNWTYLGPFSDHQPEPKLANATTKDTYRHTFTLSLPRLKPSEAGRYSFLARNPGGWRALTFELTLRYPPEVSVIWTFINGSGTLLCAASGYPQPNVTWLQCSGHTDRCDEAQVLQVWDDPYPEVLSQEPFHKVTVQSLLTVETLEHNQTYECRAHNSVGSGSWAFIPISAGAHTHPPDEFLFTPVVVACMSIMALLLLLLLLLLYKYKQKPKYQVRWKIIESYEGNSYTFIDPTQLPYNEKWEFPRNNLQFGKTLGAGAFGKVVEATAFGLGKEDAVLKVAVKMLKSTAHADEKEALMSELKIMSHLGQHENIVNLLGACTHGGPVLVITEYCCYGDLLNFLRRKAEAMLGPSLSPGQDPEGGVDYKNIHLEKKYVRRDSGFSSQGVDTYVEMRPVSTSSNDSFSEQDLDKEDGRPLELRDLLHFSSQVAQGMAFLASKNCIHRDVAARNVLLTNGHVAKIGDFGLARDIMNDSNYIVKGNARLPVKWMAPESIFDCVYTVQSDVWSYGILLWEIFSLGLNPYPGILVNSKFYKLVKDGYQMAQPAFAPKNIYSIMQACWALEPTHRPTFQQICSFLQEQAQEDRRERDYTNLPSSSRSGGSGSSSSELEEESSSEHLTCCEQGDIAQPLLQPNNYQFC
Sequence of BRSK1 (human) (Q8TDC3 whole entry, looked up): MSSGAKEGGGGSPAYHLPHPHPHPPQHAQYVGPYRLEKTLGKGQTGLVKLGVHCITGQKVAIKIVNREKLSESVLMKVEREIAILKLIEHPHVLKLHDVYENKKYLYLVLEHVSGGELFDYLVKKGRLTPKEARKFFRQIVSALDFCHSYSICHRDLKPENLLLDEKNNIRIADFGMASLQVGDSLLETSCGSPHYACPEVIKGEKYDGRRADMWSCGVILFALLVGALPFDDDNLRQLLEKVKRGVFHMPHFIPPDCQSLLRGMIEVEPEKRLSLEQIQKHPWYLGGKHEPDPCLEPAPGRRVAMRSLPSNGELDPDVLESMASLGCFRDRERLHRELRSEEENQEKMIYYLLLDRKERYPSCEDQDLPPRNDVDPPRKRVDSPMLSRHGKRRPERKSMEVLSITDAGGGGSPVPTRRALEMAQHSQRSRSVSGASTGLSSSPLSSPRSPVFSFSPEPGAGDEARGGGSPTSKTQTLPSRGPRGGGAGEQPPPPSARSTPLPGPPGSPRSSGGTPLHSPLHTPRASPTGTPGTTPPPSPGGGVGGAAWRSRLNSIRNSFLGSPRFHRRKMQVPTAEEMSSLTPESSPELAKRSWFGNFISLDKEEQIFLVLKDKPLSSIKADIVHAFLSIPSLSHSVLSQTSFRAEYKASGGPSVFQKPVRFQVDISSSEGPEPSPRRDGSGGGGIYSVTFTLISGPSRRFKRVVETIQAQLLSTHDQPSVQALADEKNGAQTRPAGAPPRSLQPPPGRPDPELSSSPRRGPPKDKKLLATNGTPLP
Sequence of SRPK1 (human) (Q96SB4 whole entry, looked up): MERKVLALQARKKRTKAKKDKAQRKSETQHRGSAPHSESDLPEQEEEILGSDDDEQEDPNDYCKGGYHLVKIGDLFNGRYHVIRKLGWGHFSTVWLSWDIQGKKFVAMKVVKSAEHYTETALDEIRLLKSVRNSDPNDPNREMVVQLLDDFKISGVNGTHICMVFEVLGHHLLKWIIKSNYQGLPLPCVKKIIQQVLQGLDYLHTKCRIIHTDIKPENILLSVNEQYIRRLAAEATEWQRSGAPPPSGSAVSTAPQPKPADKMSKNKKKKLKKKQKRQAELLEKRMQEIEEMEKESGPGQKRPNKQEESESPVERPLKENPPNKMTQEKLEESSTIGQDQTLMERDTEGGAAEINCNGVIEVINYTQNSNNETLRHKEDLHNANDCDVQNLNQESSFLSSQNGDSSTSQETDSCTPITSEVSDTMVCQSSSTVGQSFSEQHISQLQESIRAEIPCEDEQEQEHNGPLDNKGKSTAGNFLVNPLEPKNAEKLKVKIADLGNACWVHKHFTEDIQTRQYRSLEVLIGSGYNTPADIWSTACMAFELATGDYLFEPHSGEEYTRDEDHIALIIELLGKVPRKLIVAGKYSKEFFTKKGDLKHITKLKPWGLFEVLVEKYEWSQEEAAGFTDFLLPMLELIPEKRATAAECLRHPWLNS
Sequence of DYRK3 (human) (O43781 whole entry, looked up): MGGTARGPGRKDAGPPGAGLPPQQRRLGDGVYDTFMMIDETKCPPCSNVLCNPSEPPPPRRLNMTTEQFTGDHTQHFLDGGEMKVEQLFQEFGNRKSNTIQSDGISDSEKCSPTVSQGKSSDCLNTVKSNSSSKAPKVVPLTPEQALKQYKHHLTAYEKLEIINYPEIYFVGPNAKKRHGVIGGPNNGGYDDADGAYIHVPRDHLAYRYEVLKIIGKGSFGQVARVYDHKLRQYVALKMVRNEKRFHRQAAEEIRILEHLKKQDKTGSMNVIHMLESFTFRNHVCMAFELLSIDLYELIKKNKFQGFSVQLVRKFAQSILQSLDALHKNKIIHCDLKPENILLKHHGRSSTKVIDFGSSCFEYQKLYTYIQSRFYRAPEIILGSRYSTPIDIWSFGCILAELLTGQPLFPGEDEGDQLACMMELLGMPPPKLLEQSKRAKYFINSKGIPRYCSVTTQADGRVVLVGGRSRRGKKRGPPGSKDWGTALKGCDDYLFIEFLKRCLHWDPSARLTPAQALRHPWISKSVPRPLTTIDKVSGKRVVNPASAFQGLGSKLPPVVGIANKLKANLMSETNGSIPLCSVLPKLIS
Sequence of MAP2K1 (human) (Q02750 whole entry, looked up): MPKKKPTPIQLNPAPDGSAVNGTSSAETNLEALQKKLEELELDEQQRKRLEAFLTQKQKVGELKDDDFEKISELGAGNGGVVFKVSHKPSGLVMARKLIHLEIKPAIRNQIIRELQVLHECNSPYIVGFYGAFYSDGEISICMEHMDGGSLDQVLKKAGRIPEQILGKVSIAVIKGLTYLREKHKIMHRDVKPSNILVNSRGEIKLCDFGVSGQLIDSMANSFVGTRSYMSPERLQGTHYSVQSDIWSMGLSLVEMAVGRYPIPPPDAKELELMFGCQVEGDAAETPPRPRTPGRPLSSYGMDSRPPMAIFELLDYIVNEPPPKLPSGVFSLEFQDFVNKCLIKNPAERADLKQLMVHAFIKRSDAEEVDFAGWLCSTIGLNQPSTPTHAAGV
Sequence of NEK6 (human) (Q9HC98 whole entry, looked up): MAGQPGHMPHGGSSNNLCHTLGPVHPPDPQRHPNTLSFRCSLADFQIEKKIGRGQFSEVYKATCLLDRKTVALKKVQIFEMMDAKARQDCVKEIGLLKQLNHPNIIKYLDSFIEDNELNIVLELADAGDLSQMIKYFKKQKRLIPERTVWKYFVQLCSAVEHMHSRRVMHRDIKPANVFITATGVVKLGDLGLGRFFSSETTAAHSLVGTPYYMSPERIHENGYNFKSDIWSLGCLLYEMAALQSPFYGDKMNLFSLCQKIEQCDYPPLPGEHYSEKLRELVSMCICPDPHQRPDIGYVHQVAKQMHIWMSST
Sequence of DYRK2 (human) (Q92630 whole entry, looked up): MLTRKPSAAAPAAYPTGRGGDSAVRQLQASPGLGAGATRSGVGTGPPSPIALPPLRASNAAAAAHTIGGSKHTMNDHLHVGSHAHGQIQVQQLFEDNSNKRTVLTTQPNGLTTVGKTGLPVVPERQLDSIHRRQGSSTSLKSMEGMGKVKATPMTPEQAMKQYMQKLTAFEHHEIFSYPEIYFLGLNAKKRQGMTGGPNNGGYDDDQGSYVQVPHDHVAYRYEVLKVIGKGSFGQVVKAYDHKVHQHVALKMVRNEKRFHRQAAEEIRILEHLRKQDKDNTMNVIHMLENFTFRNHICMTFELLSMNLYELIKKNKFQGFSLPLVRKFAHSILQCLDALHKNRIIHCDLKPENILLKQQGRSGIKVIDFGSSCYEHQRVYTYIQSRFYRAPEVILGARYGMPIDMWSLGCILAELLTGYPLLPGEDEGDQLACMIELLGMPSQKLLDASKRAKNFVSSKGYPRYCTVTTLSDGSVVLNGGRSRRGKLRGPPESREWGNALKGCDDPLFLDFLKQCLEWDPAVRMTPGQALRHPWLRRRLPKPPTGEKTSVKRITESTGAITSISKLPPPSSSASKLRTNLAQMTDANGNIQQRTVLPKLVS

With `CS(=O)c1ccc(-c2nc(-c3ccc(F)cc3)c(-c3ccncc3)[nH]2)cc1` (stereo not drawn) the residual activity (FLT3 (human)) was 91.5%, the residual activity (NEK2 (human)) was 105% and the residual activity (CLK1 (human)) was 101%. For the same compound, the residual activity (DYRK3 (human)) was 99%, the residual activity (DYRK1B (human)) was 104% and the residual activity (EPHB3 (human)) was 96.7%. For the same compound, the residual activity (RPS6KA4 KD2 (human)) was 99.6%, the residual activity (HCK (human)) was 96.1% and the residual activity (GSG2 (human)) was 88.3%. It also gave a residual activity (TYRO3 (human)) of 97%, a residual activity (ACVR1B (human)) of 127% and a residual activity (MAP2K2 (human)) of 99.9%. For the same compound, the residual activity (CHEK2 (human)) was 99.6%, the residual activity (RPS6KA6 KD1 KD2 (human)) was 110% and the residual activity (PLK3 (human)) was 97.3%. It also gave a residual activity (CSNK1G2 (human)) of 95.7%, a residual activity (NEK6 (human)) of 103% and a residual activity (CDK6 CCND3 (human)) of 94.6%. The residual activity (MAP3K14 (human)) was 118%, the residual activity (SRPK2 (human)) was 102% and the residual activity (RET (human)) was 85.1%. For the same compound, the residual activity (FRK (human)) was 87.2%, the residual activity (CSNK1A1 (human)) was 63.9% and the residual activity (CDK5 CDK5R1 p35 (human)) was 97.3%. The residual activity (FGFR1 (human)) was 90.7%, the residual activity (MAP2K1 (human)) was 94.8% and the residual activity (MERTK (human)) was 93.9%. It also gave a residual activity (SRMS (human)) of 102%, a residual activity (BRSK1 (human)) of 97.9% and a residual activity (CAMK2D (human)) of 103%. The residual activity (TEC (human)) was 113%, the residual activity (SRPK1 (human)) was 99.5% and the residual activity (RAF1 (human)) was 41.1%. For the same compound, the residual activity (DYRK2 (human)) was 98.7%, the residual activity (RPS6KB1 (human)) was 97.4% and the residual activity (EPHA2 (human)) was 94.8%. It also gave a residual activity (BRSK2 (human)) of 101%, a residual activity (DYRK1A (human)) of 95.6% and a residual activity (CSF1R (human)) of 95.5%. The residual activity (TGFBR2 (human)) was 144%.

`CCN1/C(=C/C(C)=O)Sc2ccc(OC)cc21` was tested, and the residual activity (FLT3 (human)) was 76.1%, the residual activity (NEK2 (human)) was 97.6% and the residual activity (PRKD2 (human)) was 69.4%. The residual activity (DYRK3 (human)) was 50.4%, the residual activity (DYRK1B (human)) was 32.9% and the residual activity (EPHB3 (human)) was 90.3%. It also gave a residual activity (RPS6KA4 KD2 (human)) of 91.8%, a residual activity (HCK (human)) of 97.5% and a residual activity (GSG2 (human)) of 25%. For the same compound, the residual activity (ACVR1B (human)) was 109%, the residual activity (MAP2K2 (human)) was 86.4% and the residual activity (CHEK2 (human)) was 104%. For the same compound, the residual activity (RPS6KA6 KD1 KD2 (human)) was 89%, the residual activity (PLK3 (human)) was 99.4% and the residual activity (NEK6 (human)) was 109%. It also gave a residual activity (VRK1 (human)) of 98.2%, a residual activity (CDK6 CCND3 (human)) of 104% and a residual activity (MAP3K14 (human)) of 86.1%. It also gave a residual activity (SRPK2 (human)) of 95.8%, a residual activity (RET (human)) of 96.5% and a residual activity (FRK (human)) of 99.5%. The residual activity (CSNK1A1 (human)) was 53%, the residual activity (CDK5 CDK5R1 p35 (human)) was 91.1% and the residual activity (MAP2K1 (human)) was 98.7%. For the same compound, the residual activity (MERTK (human)) was 88.6%, the residual activity (SRMS (human)) was 84.7% and the residual activity (BRSK1 (human)) was 89.4%. For the same compound, the residual activity (CAMK2D (human)) was 92.2%, the residual activity (TEC (human)) was 116% and the residual activity (SRPK1 (human)) was 106%. The residual activity (RAF1 (human)) was 95.9%, the residual activity (DYRK2 (human)) was 19.5% and the residual activity (RPS6KB1 (human)) was 95%. It also gave a residual activity (EPHA2 (human)) of 99.1%, a residual activity (BRSK2 (human)) of 89.5% and a residual activity (DYRK1A (human)) of 28.9%. It also gave a residual activity (CSF1R (human)) of 93.8% and a residual activity (TGFBR2 (human)) of 78.5%.
